These results are taken from publication PMC4492635 (Drug Design, Development and Therapy, 2015).

One series concerns the target T1, hHMGR (Homo sapiens, UniProt P04035).
T1 sequence (P04035 450-883 limits assumed): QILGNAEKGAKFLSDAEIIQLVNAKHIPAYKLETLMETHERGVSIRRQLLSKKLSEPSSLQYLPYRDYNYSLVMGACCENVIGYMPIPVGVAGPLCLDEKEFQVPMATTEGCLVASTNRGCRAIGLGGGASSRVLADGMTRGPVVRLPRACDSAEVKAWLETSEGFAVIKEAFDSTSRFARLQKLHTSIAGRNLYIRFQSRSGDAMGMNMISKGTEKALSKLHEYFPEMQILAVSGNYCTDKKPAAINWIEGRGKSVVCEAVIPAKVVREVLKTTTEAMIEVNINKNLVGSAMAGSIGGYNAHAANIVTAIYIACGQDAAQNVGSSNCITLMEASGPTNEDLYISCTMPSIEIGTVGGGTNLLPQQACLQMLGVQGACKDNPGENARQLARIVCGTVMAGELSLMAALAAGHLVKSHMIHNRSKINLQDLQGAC
Kind of series: Enzymatic assay of recombinant hHMGR. In kind it is biochemical. The note with it: result in words, Figure 4.

A further series concerns HepG2 cells. Kind of series: MTT assay, cellular toxicity on HepG2 cells. In kind it is cell-based. The following applies: 24 h treatment, result in words. (Tetrazolium assays rely on reduction of a dye to a coloured formazan, in cell work by metabolically active cells.)

As for `CCCCCCCCCCCCCCCCCCCCCCO` [Compound 8, Docosan-1-ol], the “inhibition of hHMGR activities” value at hHMGR is “effectively inhibit”. For the same compound, the cytotoxic effect entry with HepG2 cells was “milder cytotoxic effect”.
As for `O=C(/C=C/c1ccc(O)c2oc(-c3ccc(O)c(O)c3)cc12)O[C@H](Cc1ccc(O)c(O)c1)C(=O)O` [Compound 1, (2r)-3-(3,4-dihydroxyphenyl)-2-[(E)-3-[2-(3,4-dihydroxyphenyl)-7-hydroxy-1-benzofuran-4-yl]prop-2-enoyl] oxypropanoic acid], the “inhibition of hHMGR activities” value at hHMGR was “effectively inhibit”.
Still for that read-out and setting: the entry for `COc1cc(/C=C/C(=O)CC(=O)/C=C/c2ccc(O)c(OC)c2)ccc1O` [Compound 3, (1E,6E)-1,7-bis(4-hydroxy-3-methoxyphenyl)-1,6-heptadiene-3,5-dione] is “effectively inhibit”.
For `Nc1nc(O)c2nc(CNc3ccc(C(=O)N[C@@H](CCC(=O)O)C(=O)O)cc3)cnc2n1` [Compound 10, (2S)-2-[(4-{[(2-amino-4-hydroxypteridin-6-yl)methyl]amino}phenyl) formamido] pentanedioic acid], at hHMGR, the “inhibition of hHMGR activities” value was “no inhibitory capability”.
